These results are taken from patent US5521173A, “Tricyclic benzazepine vasopressin antagonists” (American Home Products Corporation, priority 1995, dated 1996).

The test system of one experiment is Vasopressin V2. The experiment in a line: Vasopressin V2 Antagonist Activity in Conscious Hydrated Rats. In kind it is in vivo, rat. The conditions noted are these: 10 mg/kg orally, AVP 0.4 μg/kg i.p.; for Osmolality: urine. The method, then: Two to four rats are used for each compound. One hour later, arginine vasopressin (AVP, antidiuretic hormore, ADH) dissolved in peanut oil is administered at 0.4 μg/kg intraperitoneally. Two rats in each test would not receive arginine vasopressin but only the vehicle (peanut oil) to serve as water-loading control. Twenty minutes later each rat is given 30 mL/kg of deionized water orally by gavage and is placed individually in a metabolic cage equipped with a funnel and a graduated glass cylinder to collect urine for four hours. Urine volume is measured and osmolality analyzed by use of a Fiske One-Ten osmometer (Fiske Assoc., Norwood, Mass., USA). Urinary sodium, potassium, and chloride are analyzed by use of ion-specific electrodes in a Beckman E3 (Electrolyte 3) Analyzer. In the following results, […] and decreased osmolality relative to AVP-control indicates activity.

The target of the next experiment is T1, oxytocin receptors (Rattus norvegicus, UniProt P70536).
T1 construct: The uteri are dissected out, cleaned of fat and connective tissues; from tissue; host or cells: uteri of DES-treated female Sprague-Dawley rats
T1 sequence (P70536 1-388): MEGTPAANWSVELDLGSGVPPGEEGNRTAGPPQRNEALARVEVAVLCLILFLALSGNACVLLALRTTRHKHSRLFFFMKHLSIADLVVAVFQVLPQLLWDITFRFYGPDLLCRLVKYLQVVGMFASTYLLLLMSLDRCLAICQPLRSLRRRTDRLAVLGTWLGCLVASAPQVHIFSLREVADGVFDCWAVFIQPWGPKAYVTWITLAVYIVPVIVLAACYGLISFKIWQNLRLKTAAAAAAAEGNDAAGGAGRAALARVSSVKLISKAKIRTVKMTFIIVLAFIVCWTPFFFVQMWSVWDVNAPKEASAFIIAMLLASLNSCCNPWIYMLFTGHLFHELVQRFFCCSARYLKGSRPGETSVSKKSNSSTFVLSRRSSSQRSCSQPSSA
The experiment in a line: Oxytocin Receptor Binding. On the set-up: species or system rat (female Sprague-Dawley). To be noted: for IC50: 1.0 nM [3H]OT. The method, then:
Oxytocin Receptor Binding
Female Sprague-Dawley rats weighing approximately 200-250 g are injected intramuscularly (i.m.) with 0.3 mg/kg of body weight of diethylstilbestrol (DES). The rats are sacrificed 18 hours later under pentobarbital anesthesia. The uteri are dissected out, cleaned of fat and connective tissues and rinsed in 50 ml of normal saline. The tissue pooled from six rats is homogenized in 50 ml of […] Tris.HCl, containing 0.5 mM dithiothreitol and 1.0 mM EDTA, adjusted to pH 7.4, using a polytron at setting 6 with three passes of 10 sec each. The homogenate is passed through two (2) layers of cheesecloth and the filtrate centrifuged at 1000× g for 10 min. The clear supernatant is removed and recentrifuged at 165,000× g for 30 min. The resulting pellet containing the oxytocin receptors is resuspended in 50.0 mM Tris.HCl containing 5.0 mM MgCl2 at pH 7.4, to give a protein concentration of 2.5 mg/ml of tissue suspension. This preparation is used in subsequent binding assays with [^3 H]Oxytocin.
Binding of 3,5-[^3 H]Oxytocin ([^3 H]OT) to its receptors is done in microtiter plates using [^3 H]OT, at various concentrations, in an assay buffer of 50.0 mM Tris.HCl, pH 7.4 and containing 5.0 mM MgCl2, and a mixture of protease inhibitors: BSA, 0.1 mg; aprotinin, 1.0 mg; 1,10-phenanthroline, 2.0 mg; […], 10.0 mg; and PMSF, 0.3 mg per 100 ml of buffer solution. Non-specific binding is determined in the presence of 1.0 uM unlabeled OT. The binding reaction is terminated after 60 min., at 22° C., by rapid filtration through glass fiber filters using a Brandel, cell harvester (Biomedical Research and Development Laboratories,Inc., Gaithersburg, Md.). Competition experiments are conducted at equilibrium using 1.0 nM [^3 H]OT and varying the concentration of the displacing agents. The concentrations of agent displacing 50% of [^3 H]OT at its sites (IC50) are calculated by a computer assisted LUNDON-2 program (LUNDON SOFTWARE INC., Ohio, USA).

Experiment [1] has as its target T2, Rat Kidney Medullary V2 Receptors (Rattus norvegicus, UniProt Q00788).
T2 construct: Medullary tissues from rat kidneys are dissected out; from tissue; host or cells: rat kidney medulla membranes
The experiment in a line: Binding Assay to Rat Kidney Medullary V2 Receptors. The conditions noted are these: rat kidney medullary V2 (no asterisk). The method, then:
Binding Assay to Rat Kidney Medullary V2 Receptors
Medullary tissues from rat kidneys are dissected out, cut into small pieces and soaked in a […] sodium chloride solution containing 1.0 mM EDTA with many changes of the liquid phase, until the solution is clear of blood. The tissue is homogenized in a 0.25M sucrose solution containing 1.0 mM EDTA and 0.1 mM PMSF using a Potter-Elvehjem homogenizer with a teflon pestle. The homogenate is filtered through several layers (4 layers) of cheese cloth. The filtrate is rehomogenized using a dounce homogenizer, with a tight fitting pestle. The final homogenate is centrifuged at 1500× g for 15 min. […] The protein content is determined by the Lowry's method (Lowry et al., J. Biol. Chem., 1953). […]
For binding experiments, the following is added in μl volume to wells of a 96 well format of a microtiter plate: 100.0 μl of 100.0 mM Tris.HCl buffer containing 0.2% heat inactivated BSA, 10.0 mM MgCl2 and a mixture of protease inhibitors: leupeptin, 1.0 mg %; aprotinin, 1.0 mg %; 1,10-phenanthroline, 2.0 mg %; trypsin inhibitor, 10.0 mg % and 0.1 mM PMSF, 20.0 μl of [^3 H] […] Non-specific binding is assessed in the presence of 1.0 μM of unlabeled ligand, added in 20 μl volume. […] The data are analyzed for IC50 values by the LUNDON-2 program for competition (LUNDON SOFTWARE, Ohio).

T2 sequence (Q00788 whole entry): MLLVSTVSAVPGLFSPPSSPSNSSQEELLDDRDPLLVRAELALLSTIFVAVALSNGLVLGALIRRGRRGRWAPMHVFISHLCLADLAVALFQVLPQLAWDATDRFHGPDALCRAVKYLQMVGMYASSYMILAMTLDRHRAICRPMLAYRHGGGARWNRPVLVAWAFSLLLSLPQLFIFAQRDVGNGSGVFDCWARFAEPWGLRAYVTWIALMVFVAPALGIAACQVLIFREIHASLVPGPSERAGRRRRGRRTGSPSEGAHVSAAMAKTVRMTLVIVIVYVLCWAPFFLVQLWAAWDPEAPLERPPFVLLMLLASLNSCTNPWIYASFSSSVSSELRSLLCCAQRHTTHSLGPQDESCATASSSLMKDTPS

As usually defined, the inhibition is the percentage by which the read-out fell short of the control. Broadly, the IC50 is the concentration that inhibits the measured activity by half. Lower therefore signals greater potency. For `O=C(c1ccc(-c2ccccc2)cc1)N1Cc2cccn2Cc2ccccc21` [Example 19, 10-([1,1'-Biphenyl]-4-ylcarbonyl)-10,11-dihydro-5H-pyrrolo[2,1-c][1,4]benzodiazepine], in the experiment with Vasopressin V2, the “Urine Volume” value came to 3.5 ml/4 hrs and the Osmolality came out at 1598 mOsm/kg. On oxytocin receptors, this compound returned an inhibition at 10 µM of 81% and an IC50 of 43 nM.

In the case of `O=C(c1ccc(-c2cc(F)cc(F)c2)cc1)N1Cc2cccn2Cc2ccccc21` [Example 3, 10,11-Dihydro-10-[4-(3,5-difluorophenyl)benzoyl]-5H-pyrrolo[2,1-c][1,4]benzodiazepine], in the experiment with Vasopressin V2, the “Urine Volume” value amounted to 5.9 ml/4 hrs and the Osmolality amounted to 1205 mOsm/kg. On oxytocin receptors, the inhibition at 10 µM is 89% and the half-inhibitory concentration (IC50) is 2600 nM.

In the case of `O=C(c1ccc(-c2ccccc2)cc1)N1Cc2ccnn2Cc2ccccc21` [Example 7, 5-([1,1'-Biphenyl]-4-ylcarbonyl)-5,10-dihydro-4H-pyrazolo[5,1-c][1,4]benzodiazepine], in the experiment on Vasopressin V2, the “Urine Volume” value came out at 7.5 ml/4 hrs and the Osmolality amounted to 1005 mOsm/kg. Further, at oxytocin receptors, the inhibition at 10 µM was determined as 100% and the concentration for half-maximal inhibition (IC50) was determined as 230 nM.

Consider `O=C(c1ccc(-c2ccccc2C(F)(F)F)cc1)N1Cc2cccn2Cc2ccccc21` [Example 8], for which, in the experiment with Vasopressin V2, the “Urine Volume” value was determined as 8 ml/4 hrs and the Osmolality came out at 887 mOsm/kg. The IC50 in experiment [1] stood at 3300 nM. On oxytocin receptors, this compound registered an inhibition at 10 µM of 95% and an IC50 of 1270 nM.

Turning to `O=C(c1ccc(-c2ccccn2)cc1)N1Cc2cccn2Cc2ccccc21` [Example 9, 10,11-Dihydro-10-[4-(2-pyridinyl)benzoyl]-5H-pyrrolo[2,1-c][1,4]benzodiazepine], in the experiment with Vasopressin V2, the “Urine Volume” value is given as 8.3 ml/4 hrs and the Osmolality is recorded as 857 mOsm/kg. The compound further had an IC50 in experiment [1] of 1200 nM. For the same compound, on oxytocin receptors, at 10 µM the inhibition was 100% and the 50% inhibitory concentration (IC50) was 130 nM.
